# Laboratory results published in the NIST ThermoML archive (doi:10.1021/je034012m).
# Where “and” joins values, the source holds several entries; their conditions need not be identical. Identical values can stand only once. ± gives the expanded uncertainty stated by the source.
# Details: Crystal
compound,measurement,setting,value
O.O.[Ba+2].[Cl-].[Cl-] [barium chloride dihydrate],vapor or sublimation pressure,295.45 K,0.5 ± 0.33 kPa
same,vapor or sublimation pressure,295.55 K,0.39 ± 0.32 kPa and 0.53 ± 0.34 kPa
same,vapor or sublimation pressure,295.65 K,0.56 ± 0.35 kPa
same,vapor or sublimation pressure,297.35 K,0.31 ± 0.35 kPa
same,vapor or sublimation pressure,304.25 K,1.22 ± 0.33 kPa
same,vapor or sublimation pressure,304.55 K,0.9 ± 0.33 kPa
same,vapor or sublimation pressure,306.35 K,1.01 ± 0.33 kPa
same,vapor or sublimation pressure,306.95 K,1.31 ± 0.33 kPa
same,vapor or sublimation pressure,307.25 K,1.39 ± 0.33 kPa
same,vapor or sublimation pressure,307.35 K,1.04 ± 0.33 kPa
same,vapor or sublimation pressure,308.25 K,1.19 ± 0.32 kPa
same,vapor or sublimation pressure,309.45 K,1.3 ± 0.33 kPa
same,vapor or sublimation pressure,319.05 K,2.5 ± 0.34 kPa
same,vapor or sublimation pressure,321.15 K,2.66 ± 0.47 kPa
same,vapor or sublimation pressure,323.15 K,3.88 ± 0.76 kPa
same,vapor or sublimation pressure,323.45 K,3.85 ± 0.74 kPa
same,vapor or sublimation pressure,323.75 K,3.97 ± 0.73 kPa
same,vapor or sublimation pressure,324.15 K,4.05 ± 0.64 kPa
same,vapor or sublimation pressure,324.85 K,5.15 ± 1.1 kPa
same,vapor or sublimation pressure,325.55 K,5.1 ± 0.83 kPa
same,vapor or sublimation pressure,336.95 K,9.4 ± 0.6 kPa
same,vapor or sublimation pressure,343.65 K,13.59 ± 0.76 kPa
O.[Ba+2].[Cl-].[Cl-] [barium chloride monohydrate],vapor or sublimation pressure,290.45 K,0.086 ± 0.15 kPa
same,vapor or sublimation pressure,304.15 K,0.173 ± 0.16 kPa
same,vapor or sublimation pressure,304.45 K,0.146 ± 0.16 kPa
same,vapor or sublimation pressure,305.25 K,0.138 ± 0.16 kPa
same,vapor or sublimation pressure,307.25 K,0.133 ± 0.16 kPa
same,vapor or sublimation pressure,307.45 K,0.231 ± 0.16 kPa
same,vapor or sublimation pressure,307.95 K,0.17 ± 0.16 kPa
same,vapor or sublimation pressure,308.05 K,0.142 ± 0.16 kPa
same,vapor or sublimation pressure,308.45 K,0.248 ± 0.16 kPa and 0.272 ± 0.16 kPa
same,vapor or sublimation pressure,308.65 K,0.241 ± 0.16 kPa
same,vapor or sublimation pressure,308.95 K,0.105 ± 0.16 kPa
same,vapor or sublimation pressure,309.05 K,0.195 ± 0.16 kPa
same,vapor or sublimation pressure,309.25 K,0.344 ± 0.16 kPa
same,vapor or sublimation pressure,310.15 K,0.199 ± 0.16 kPa
same,vapor or sublimation pressure,311.45 K,0.16 ± 0.16 kPa
same,vapor or sublimation pressure,312.95 K,0.24 ± 0.16 kPa
same,vapor or sublimation pressure,313.45 K,0.274 ± 0.16 kPa
same,vapor or sublimation pressure,315.35 K,0.35 ± 0.16 kPa
same,vapor or sublimation pressure,315.95 K,0.4 ± 0.16 kPa
same,vapor or sublimation pressure,316.15 K,0.76 ± 0.16 kPa
same,vapor or sublimation pressure,318.45 K,0.312 ± 0.16 kPa
same,vapor or sublimation pressure,322.85 K,0.6 ± 0.16 kPa
same,vapor or sublimation pressure,323.55 K,0.6 ± 0.16 kPa
same,vapor or sublimation pressure,334.45 K,1.04 ± 0.17 kPa and 1.1 ± 0.17 kPa
same,vapor or sublimation pressure,334.85 K,1.01 ± 0.25 kPa
same,vapor or sublimation pressure,334.95 K,0.96 ± 0.27 kPa
same,vapor or sublimation pressure,335.45 K,1.26 ± 0.2 kPa
same,vapor or sublimation pressure,337.45 K,1.51 ± 0.18 kPa
same,vapor or sublimation pressure,337.65 K,1.47 ± 0.18 kPa
same,vapor or sublimation pressure,344.95 K,2.06 ± 0.18 kPa
same,vapor or sublimation pressure,345.25 K,2.05 ± 0.18 kPa
